Experimental findings from ChEMBL document CHEMBL6114967, “Design and synthesis of novel sulfur-substituted triptolide with the ability to induce autophagy through inhibition of SRSF1 expression” (Eur J Med Chem, 2025) are described below.

Active and inactive are the calls of the source. The calls are words filed in the database; no cut-off is given here.

For data set [1], the system named is AGS. The experiment in a line: Induction of apoptosis in human AGS cells assessed as early apoptotic cells at 2 uM incubated for 48 hrs by annexin V-FITC and PI staining based flow cytometry analysis (reference value: 4.44%). Type of data set: functional. For orientation: A flow cytometer gives signals particle by particle.
The subject of data set [2] is HGC-27. The experiment in a line: Downregulation of SRSF1 mRNA expression in human HGC-27 cells at 2 uM incubated for 24 hrs. The format is functional, cell-based.
For data set [3], the system named is HGC-27. The data set is described as follows: Induction of cell cycle arrest in human HGC-27 cells assessed as reduction in CyclinE2 expression at 0.5 to 2 uM by Western blotting analysis. The format is functional, cell-based. Particulars: dose 0.5-2 µM. (In western blotting, separated proteins are transferred to a membrane and probed.)
A short description of data set [4]: Toxicity in male ICR mouse assessed as animal death at 1 g/Kg, ip measured after 7 days. The format is organism-based. The conditions noted are these: in vivo, 1000 mg/kg, 168 h, time 7 day.
Data set [5] concerns AGS. The experiment in a line: Induction of apoptosis in human AGS cells assessed as viable cells at 1 uM incubated for 48 hrs by annexin V-FITC and PI staining based flow cytometry analysis (reference value: 92.0%). The format is functional. The conditions noted are these: read-out: Activity.
In data set [6] the test system is AGS. The experiment in a line: Downregulation of SRSF1 mRNA expression in human AGS cells incubated for 24 hrs by SYBR green dye based RT-qPCR analysis. The format is functional, cell-based. The conditions noted are these: dose 0.5-2 µM. Background: Real-time PCR tracks product formation cycle by cycle.
The test system of data set [7] is AGS. The experiment in a line: Induction of autophagy in human AGS cells assessed as upregulation of Beclin1 protein level at 0.5 to 2 uM incubated for 48 hrs by Western blotting analysis. Type of data set: functional, cell-based. Particulars: dose 0.5-2 µM.
Data set [8] relates to HCT-116. The data set is described as follows: Antiproliferative activity against human HCT-116 cells assessed as inhibition of cell proliferation incubated for 72 hrs by MTT assay. Type of data set: functional, cell-based. The conditions noted are these: HCT-116, 72 h.

What is called IC50 is the point on the concentration scale where inhibition reaches its midpoint. Turning to `CC(C)[C@]12O[C@H]1[C@@H]1O[C@]13[C@]1(O[C@H]1C[C@H]1C4=C(CC[C@@]13C)C(=S)OC4)[C@@H]2O`, the Activity is 31.6% in data set [1], “Non-toxic” in data set [4] and “Dose-dependent-effect” in data set [6]. In addition, the outcome in data set [2], in data set [3] and in data set [7] was Active. Moreover, the viability at 1 µM in data set [5] was 65.1%. Further, the IC50 in data set [8] turned out to be 400 nM.
